Values after ≈ are worked out from the molar mass of the structure shown. Read-outs that look alike come from different tables or passages of the source.
What was measured:
influenza A virus = experiment: Inhibition of influenza A virus replication (cytopathic effect) in MDCK cells; conditions: for ID50: MDCK cells, influenza A virus
MDCK cells [1] = experiment: Minimum cytotoxic drug concentration in the MDCK cell replication assay
MDCK cells [2] = conditions: dog
[3] = tested on: influenza A/Victoria/3/75 B010; experiment: Inhibition of influenza A/Victoria/3/75 B010 replication, standard CPE type assay; type: cell-based; conditions: for EC50: three separate experiments (test 1-3)
[4] = Cytotoxicity (CC50) in the CPE type assay of Example 7; type: cell-based; conditions: CPE assay of Example 7; three separate experiments (test 1-3)

CC(=O)N[C@H]1[C@H]([C@H](OC(=O)NCCCCCCNC(=O)NCCCCNC(=O)NCCCCCCNC(=O)O[C@@H]([C@@H]2OC(C(=O)O)=C[C@H](NC(=N)N)[C@H]2NC(C)=O)[C@H](O)CO)[C@H](O)CO)OC(C(=O)O)=C[C@@H]1NC(=N)N [(2)]
ID50 (μg of (A)) (influenza A virus): 0.013 μg of (A)
ID50 (influenza A virus): 0.007 µg/mL (≈ 0.00643 µM)
MTC (MDCK cells [1]): >10 µg/mL

CC(=O)N[C@H]1[C@H]([C@H](OC(=O)NCCCCCCNC(=O)NCCCCCCCCCCCCNC(=O)NCCCCCCNC(=O)O[C@@H]([C@@H]2OC(C(=O)O)=C[C@H](NC(=N)N)[C@H]2NC(C)=O)[C@H](O)CO)[C@H](O)CO)OC(C(=O)O)=C[C@@H]1NC(=N)N [(3), Bis-[7-(6′-hexyleneureodo)-carbamoyloxy-5-acetamido-4-guanidino-2,3,4,5-tetradeoxy-D-glycero-D-galacto-non-2-enopyranosonic acid]]
ID50 (μg of (A)) (influenza A virus): 0.028 μg of (A)
ID50 (influenza A virus): 0.017 µg/mL (≈ 0.0142 µM)
MTC (MDCK cells [1]): >10 µg/mL

CC(=O)N[C@H]1[C@H]([C@H](OC(=O)NCCCCCCNC(=O)CNC(=O)CNC(=O)CNC(=O)NCCCCCCNC(=O)NCC(=O)NCC(=O)NCC(=O)NCCCCCCNC(=O)O[C@@H]([C@@H]2OC(C(=O)O)=C[C@H](NC(=N)N)[C@H]2NC(C)=O)[C@H](O)CO)[C@H](O)CO)OC(C(=O)O)=C[C@@H]1NC(=N)N [(4)]
ID50 (μg of (A)) (influenza A virus): 0.11 μg of (A)
ID50 (influenza A virus): 0.084 µg/mL (≈ 0.0576 µM)
MTC (MDCK cells [1]): >10 µg/mL

CC(=O)N[C@H]1[C@H]([C@H](OC(=O)NCCCCCCNC(=O)CCCCCNC(=O)CCCCCNC(=O)NCCCCCCCCCCCCNC(=O)NCCCCCC(=O)NCCCCCC(=O)NCCCCCCNC(=O)O[C@@H]([C@@H]2OC(C(=O)O)=C[C@H](NC(=N)N)[C@H]2NC(C)=O)[C@H](O)CO)[C@H](O)CO)OC(C(=O)O)=C[C@@H]1NC(=N)N [(5)]
ID50 (μg of (A)) (influenza A virus): 0.42 μg of (A)
ID50 (influenza A virus): 0.35 µg/mL (≈ 0.212 µM)
MTC (MDCK cells [1]): >10 µg/mL

CC(=O)N[C@H]1[C@H]([C@H](OC(=O)NCCCCCCNC(=O)CCCCCNC(=O)CCCCCNC(=O)CCCCCNC(=O)CCCCCNC(=O)NCCCCCCNC(=O)NCCCCCC(=O)NCCCCCC(=O)NCCCCCC(=O)NCCCCCC(=O)NCCCCCCNC(=O)O[C@@H]([C@@H]2OC(C(=O)O)=C[C@H](NC(=N)N)[C@H]2NC(C)=O)[C@H](O)CO)[C@H](O)CO)OC(C(=O)O)=C[C@@H]1NC(=N)N [(6)]
ID50 (μg of (A)) (influenza A virus): 0.62 μg of (A)
ID50 (influenza A virus): 0.63 µg/mL (≈ 0.311 µM)
MTC (MDCK cells [1]): >10 µg/mL

CC(=O)N[C@H]1[C@H]([C@H](OC(=O)NCCCCCCN)[C@H](O)CO)OC(C(=O)O)=C[C@@H]1NC(=N)N [(7), 5-acetamido-7-(6′-aminohexyl)-carbamoyloxy-4-guanidino-2,3,4,5-tetradeoxy-D-glycero-D-galacto-non-2-enopyranosonic acid, reference compound]
ID50 (μg of (A)) (influenza A virus): 0.32 μg of (A)
ID50 (influenza A virus): 0.22 µg/mL (≈ 0.464 µM)
MTC (MDCK cells [2]): >10 µg/mL

CC(=O)N[C@H]1[C@H]([C@H](OC(=O)NCCCCCCNC(=O)CN(CCN(CC(=O)O)CC(=O)NCCCCCCNC(=O)O[C@@H]([C@@H]2OC(C(=O)O)=C[C@H](NC(=N)N)[C@H]2NC(C)=O)[C@H](O)CO)CC(=O)O)[C@H](O)CO)OC(C(=O)O)=C[C@@H]1NC(=N)N [Compound 8, Bis-[7-(6′-methyleneamine-N-acetic acid-N-acetamido-hexyl)-carbamoyloxy-5-acetamido-4-guanidino-2,3,4,5-tetradeoxy-D-glycero-D-galacto-non-2-enopyranosonic acid]]
EC90 ([3]; test 1): 0.0671 µg/mL (≈ 0.0557 µM)
EC50 [3]: 0.00971 µg/mL (≈ 0.00806 µM)
CC50 [4]: >0.1 µg/mL

CC(=O)N[C@H]1[C@H]([C@H](O)[C@H](O)CO)OC(C(=O)O)=C[C@@H]1NC(=N)N [Compound (A), 4-guanidino-2-deoxy-2,3-dehydro-N-acetylneuraminic acid, reference compound]
EC50 ([3]; Influenza A virus, read-out: EC50): 0.009 µg/mL (≈ 0.0271 µM)
ID50 (μg of (A)) (influenza A virus): 0.028 μg of (A)
ID50 (influenza A virus): 0.0095 µg/mL (≈ 0.0286 µM)
MTC (MDCK cells [1]): >10 µg/mL
